Laboratory results published in ChEMBL document CHEMBL4033713, “Click strategy using disodium salts of amino acids improves the water solubility of plinabulin and KPU-300” (Bioorg Med Chem, 2017).
Values after ≈ are worked out from the molar mass of the structure shown.

Experiments:
[1] = Solubility of the compound in water; type: physicochemical
Liver carboxylesterase [2] = molecular target: T1, Liver carboxylesterase (Sus scrofa, UniProt Q29550); assay: Drug level treated with Sodium (S)-2-(4-(4-((((3Z,6Z)-6-(3-benzoylbenzylidene)-5-oxo-3-(pyridine-2-ylmethylene)-3,4,5,6-tetrahydropyrazin-2-yl)oxy)methoxy)-4-oxobutyl)-1H-1,2,3-triazol-1-yl)succinate assessed as porcine liver carboxylic-ester hydrolase-mediated metabolite formation after 48 hrs by HPLC method; type: ADME; settings: pig
T1 sequence (Q29550 whole entry): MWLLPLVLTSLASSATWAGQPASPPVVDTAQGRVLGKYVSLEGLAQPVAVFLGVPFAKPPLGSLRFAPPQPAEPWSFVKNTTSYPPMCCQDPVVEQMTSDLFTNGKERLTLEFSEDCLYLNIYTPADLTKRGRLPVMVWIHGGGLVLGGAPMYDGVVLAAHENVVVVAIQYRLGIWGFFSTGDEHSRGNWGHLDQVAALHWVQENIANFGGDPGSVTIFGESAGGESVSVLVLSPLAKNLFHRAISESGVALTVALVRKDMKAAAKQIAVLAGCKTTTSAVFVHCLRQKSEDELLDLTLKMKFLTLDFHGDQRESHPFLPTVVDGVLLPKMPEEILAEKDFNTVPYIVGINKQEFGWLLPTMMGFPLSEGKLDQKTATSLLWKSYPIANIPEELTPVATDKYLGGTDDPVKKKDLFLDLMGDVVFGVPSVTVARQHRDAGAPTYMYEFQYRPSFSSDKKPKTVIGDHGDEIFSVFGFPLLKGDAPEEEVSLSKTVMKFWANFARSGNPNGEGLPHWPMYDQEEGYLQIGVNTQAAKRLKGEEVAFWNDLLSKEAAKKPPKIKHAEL

[3] = Solubility of the compound in distilled water after 15 mins by HPLC method; type: physicochemical
Liver carboxylesterase [4] = molecular target: T1, Liver carboxylesterase; assay: Drug metabolism assessed as porcine liver carboxylic-ester hydrolase-mediated compound hydrolysis by measuring half-life by HPLC analysis; type: ADME; settings: pig, porcine liver carboxylic-ester hydrolase (liver esterase)
Liver carboxylesterase [5] = molecular target: T1, Liver carboxylesterase; assay: Drug metabolism assessed as porcine liver carboxylic-ester hydrolase-mediated compound hydrolysis by measuring half-life at 500 ug by HPLC analysis; type: ADME; settings: pig, porcine liver carboxylic-ester hydrolase (liver esterase)
Liver carboxylesterase [6] = molecular target: T1, Liver carboxylesterase; assay: Stability of the compound assessed as porcine liver esterase-mediated hydrolysis by measuring compound remaining after 48 hrs by HPLC method; type: ADME; settings: pig, read-out: Stability
Liver carboxylesterase [7] = molecular target: T1, Liver carboxylesterase; assay: Drug level treated with Sodium (S)-2-(4-(4-((((3Z,6Z)-6-benzylidene-3-((5-(tertbutyl)-1H-imidazol-4-yl)methylene)-5-oxo-3,4,5,6-tetrahydropyrazin-2-yl)oxy)methoxy)-4-oxobutyl)-1H-1,2,3-triazol-1-yl)pentanedioate assessed as porcine liver carboxylic-ester hydrolase-mediated metabolite formation after 48 hrs by HPLC method; settings: pig
Liver carboxylesterase [8] = molecular target: T1, Liver carboxylesterase; assay: Drug level treated with Sodium (S)-2-(4-(4-((((3Z,6Z)-6-benzylidene-3-((5-(tertbutyl)-1H-imidazol-4-yl)methylene)-5-oxo-3,4,5,6-tetrahydropyrazin-2-yl)oxy)methoxy)-4-oxobutyl)-1H-1,2,3-triazol-1-yl)succinate assessed as porcine liver carboxylic-ester hydrolase-mediated metabolite formation after 48 hrs by HPLC method; type: ADME; settings: pig

| solubility at 0.25 h [3] | half-life (Liver carboxylesterase [4]) | Structure (SMILES) | other results |
| --- | --- | --- | --- |
| – | – | O=C(c1ccccc1)c1cccc(/C=c2\[nH]c(=O)/c(=C/c3ccccn3)[nH]c2=O)c1 | solubility [1]: < 0.1 µg/mL; Drug metabolism (Liver carboxylesterase [2]): Metabolite_Detected |
| > 100000 µg/mL | 12 h | CC(C)(C)c1[nH]cnc1/C=c1\[nH]c(=O)/c(=C/c2ccccc2)nc1OCOC(=O)CCCc1cn([C@@H](CC(=O)[O-])C(=O)[O-])nn1.[Na+].[Na+] | – |
| 7.5 µg/mL (≈ 11.3 µM) | – | CC(C)(C)c1[nH]cnc1/C=c1\[nH]c(=O)/c(=C/c2ccccc2)nc1OCOC(=O)CCCc1cn([C@@H]2O[C@H](CO)[C@H](O)[C@H](O)[C@H]2O)nn1 | – |
| > 100000 µg/mL | 5.4 h | CC(C)(C)c1[nH]cnc1/C=c1\[nH]c(=O)/c(=C/c2ccccc2)nc1OCOC(=O)CCCc1cn([C@@H](CCC(=O)[O-])C(=O)[O-])nn1.[Na+].[Na+] | – |
| 590 µg/mL | – | CC(C)(C)c1[nH]cnc1/C=c1\[nH]c(=O)/c(=C/c2ccccc2)nc1OCOC(=O)CCCc1cn(CC(=O)[O-])nn1.[Na+] | – |
| 850 µg/mL | – | CC(C)(C)c1[nH]cnc1/C=c1\[nH]c(=O)/c(=C/c2ccccc2)nc1OCOC(=O)CCCc1cn(C[C@H](O)CC(=O)[O-])nn1.[Na+] | half-life (Liver carboxylesterase [5]): 0.37 h |
| > 100000 µg/mL | 9 h | CC(C)(C)c1[nH]cnc1/C=c1\[nH]c(=O)/c(=C/c2ccccc2)nc1OCOC(=O)CCCc1cn([C@H](CCC(=O)[O-])C(=O)[O-])nn1.[Na+].[Na+] | – |
| – | 1 h | CC(C)(C)c1[nH]cnc1/C=c1\[nH]c(=O)/c(=C/c2ccccc2)nc1OCOC(=O)CCCc1cn([C@@H](CO)C(=O)[O-])nn1.[Na+] | solubility [1]: 6380 µg/mL |
| 80000 µg/mL (≈ 118000 µM) | 8.7 h | O=C(O)CC(C(=O)O)n1cc(CCCC(=O)OCOc2n/c(=C\c3cccc(C(=O)c4ccccc4)c3)c(=O)[nH]/c2=C\c2ccccn2)nn1 (single isomer, unassigned) | remaining at 48 h (Liver carboxylesterase [6]): 20% |
| – | – | C=O [FORMALDEHYDE] | Drug metabolism (Liver carboxylesterase [7]): Metabolite_Detected |
| – | – | CC(C)(C)c1[nH]cnc1/C=c1\[nH]c(=O)/c(=C/c2ccccc2)[nH]c1=O [PLINABULIN] | solubility [1]: < 0.1 µg/mL; Drug metabolism (Liver carboxylesterase [8]): Metabolite_Detected; Drug metabolism (Liver carboxylesterase [7]): Metabolite_Detected |
